Patent US8710178B2, “Macrocyclic cysteine protease inhibitors and compositions thereof” (Lincoln University, priority 2006, dated 2014)
Read-outs that look alike come from different tables or passages of the source.

Key:
[1] = rcm bond, 1,1,2-trichloroethane
calpain II (m calpain) = molecular target: T1, calpain II (m calpain) (Homo sapiens, UniProt P17655); assay: BODIPY-casein fluorescence-based enzyme assay, calpain II / m-calpain; assay type: biochemical; details: BODIPY-casein substrate
T1 sequence (P17655 1-700): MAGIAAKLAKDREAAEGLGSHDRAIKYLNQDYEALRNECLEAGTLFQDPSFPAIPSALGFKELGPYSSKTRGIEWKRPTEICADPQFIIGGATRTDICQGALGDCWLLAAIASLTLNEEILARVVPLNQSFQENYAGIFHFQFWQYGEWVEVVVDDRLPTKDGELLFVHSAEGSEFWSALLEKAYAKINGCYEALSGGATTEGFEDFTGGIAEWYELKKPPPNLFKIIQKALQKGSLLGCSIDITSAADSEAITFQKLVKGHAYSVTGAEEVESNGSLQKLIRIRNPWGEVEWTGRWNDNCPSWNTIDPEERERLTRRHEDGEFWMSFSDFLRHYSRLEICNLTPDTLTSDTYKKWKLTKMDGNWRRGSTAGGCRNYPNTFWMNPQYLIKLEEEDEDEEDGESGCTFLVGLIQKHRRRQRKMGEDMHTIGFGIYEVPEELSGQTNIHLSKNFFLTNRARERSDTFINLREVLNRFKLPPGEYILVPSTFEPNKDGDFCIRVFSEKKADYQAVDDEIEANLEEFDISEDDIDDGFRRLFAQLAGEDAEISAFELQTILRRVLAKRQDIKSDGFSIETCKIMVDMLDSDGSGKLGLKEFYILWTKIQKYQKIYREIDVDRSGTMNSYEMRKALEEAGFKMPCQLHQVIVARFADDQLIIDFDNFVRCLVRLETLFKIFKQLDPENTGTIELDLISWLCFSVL
T1 sequence (P04632 1-268 partner): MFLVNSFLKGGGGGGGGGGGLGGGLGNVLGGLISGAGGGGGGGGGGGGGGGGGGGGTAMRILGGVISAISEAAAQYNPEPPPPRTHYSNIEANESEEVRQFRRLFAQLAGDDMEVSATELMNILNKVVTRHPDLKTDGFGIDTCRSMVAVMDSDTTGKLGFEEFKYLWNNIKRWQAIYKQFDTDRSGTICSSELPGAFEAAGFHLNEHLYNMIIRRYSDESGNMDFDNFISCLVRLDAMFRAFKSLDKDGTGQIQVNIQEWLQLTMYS
Method: (§1) The inhibitors were assayed against several enzymes using a BODIPY-casein substrate in the fluorescence-based assay procedure of V. F. Thompson, S. Saldana, J. Cong and D. E. Goll, Anal. Biochem. 2000, 279, 170.
A number of the compounds were assayed against m-calpain using a BODIPY-casein substrate in the fluorescence-based assay procedure of V. F. Thompson, S. Saldana, J. Cong and D. E. Goll, Anal. Biochem. 2000, 279, 170.

calpain I (μ calpain) = molecular target: T2, calpain I (μ calpain) (Homo sapiens, UniProt P07384); assay: BODIPY-casein fluorescence-based enzyme assay, calpain I; assay type: biochemical; details: BODIPY-casein substrate
T2 sequence (P07384 1-714): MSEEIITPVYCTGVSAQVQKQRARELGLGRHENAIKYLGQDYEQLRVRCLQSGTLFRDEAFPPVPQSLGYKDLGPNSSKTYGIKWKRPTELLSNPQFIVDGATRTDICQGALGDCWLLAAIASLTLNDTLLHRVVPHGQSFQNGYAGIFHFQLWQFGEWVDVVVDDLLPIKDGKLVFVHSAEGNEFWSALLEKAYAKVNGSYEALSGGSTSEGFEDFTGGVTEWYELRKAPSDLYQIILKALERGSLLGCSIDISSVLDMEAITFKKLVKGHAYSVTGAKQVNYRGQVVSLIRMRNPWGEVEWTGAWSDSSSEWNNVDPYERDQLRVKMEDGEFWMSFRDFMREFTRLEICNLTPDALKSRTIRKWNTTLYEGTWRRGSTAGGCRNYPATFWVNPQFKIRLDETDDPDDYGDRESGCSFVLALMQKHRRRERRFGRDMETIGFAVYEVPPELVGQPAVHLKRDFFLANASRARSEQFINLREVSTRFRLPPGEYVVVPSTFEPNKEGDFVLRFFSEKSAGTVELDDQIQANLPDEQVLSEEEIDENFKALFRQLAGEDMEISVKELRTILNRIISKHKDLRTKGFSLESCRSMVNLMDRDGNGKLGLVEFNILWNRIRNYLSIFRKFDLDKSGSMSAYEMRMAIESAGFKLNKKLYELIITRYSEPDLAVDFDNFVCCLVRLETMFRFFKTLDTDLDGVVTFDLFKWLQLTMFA
T2 sequence (P04632 1-268 partner): T1 sequence (P04632 1-268 partner)

cathepsin B = cathepsin B (Homo sapiens, UniProt P07858); assay: BODIPY-casein fluorescence-based enzyme assay, cathepsin B; assay type: biochemical; details: BODIPY-casein substrate
α-chymotrypsin = α-chymotrypsin (Bos taurus, UniProt P00766); assay: BODIPY-casein fluorescence-based enzyme assay, α-chymotrypsin; assay type: biochemical; details: BODIPY-casein substrate
papain = molecular target: T3, papain (Carica papaya, UniProt P00784); assay: BODIPY-casein fluorescence-based enzyme assay, papain; assay type: biochemical; details: BODIPY-casein substrate
T3 sequence (P00784 134-345): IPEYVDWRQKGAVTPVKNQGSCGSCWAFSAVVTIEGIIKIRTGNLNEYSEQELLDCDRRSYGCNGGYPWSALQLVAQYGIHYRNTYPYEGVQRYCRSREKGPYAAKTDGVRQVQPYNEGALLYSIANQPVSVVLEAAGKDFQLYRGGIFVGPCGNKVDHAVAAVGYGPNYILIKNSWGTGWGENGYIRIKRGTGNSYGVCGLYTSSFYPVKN
Method: as §1

[2] = Table 3, read-out: IC50 against m-calpain
[3] = Table 2, read-out: IC50 calpain II (m calpain)
[4] = 19-membered ring, Grubbs II (3 x 0.10 equiv), microwave, 10.0 mM

COC(=O)[C@@H]1C/C=C/COc2ccc(cc2)C[C@H](NC(=O)OC(C)(C)C)C(=O)N[C@@H](C(C)C)C(=O)N1
ring closure, isolated yield ([1]; 17-membered ring, Grubbs II, 10.0 mM): 12%

CC(C)C[C@@H]1NC(=O)[C@@H](NS(=O)(=O)c2ccc(F)cc2)Cc2ccc(cc2)OCCCC[C@@H](CO)NC1=O [Compound 16, 4-Fluoro-N-((7S,10S,13S)-7-hydroxymethyl-10-isobutyl-9,12-dioxo-2-oxa-8,11-diaza-bicyclo-[13.2.2]nonadeca-1(18),15(19),16-trien-13-yl)-benzenesulfonamide]
IC50 (calpain II (m calpain); [2]): 930 nM

CC(C)C[C@@H]1NC(=O)[C@@H](NS(=O)(=O)c2ccc(F)cc2)Cc2ccc(cc2)OCCCC[C@@H](C=O)NC1=O [Compound 17, 4-Fluoro-N-((7S,10S,13S)-7-formyl-10-isobutyl-9,12-dioxo-2-oxa-8,1′-diaza-bicyclo[13.2.2]-nonadeca-1(18),15(19),16-trien-13-yl)-benzenesulfonamide]
IC50 (calpain II (m calpain); [2]): 45 nM

CC(C)C[C@@H]1NC(=O)[C@@H](NC(=O)OCc2ccccc2)Cc2ccc(cc2)OCCCCC[C@@H](CO)NC1=O [Compound 27]
IC50 (calpain I (μ calpain)): 1340 nM
IC50 (calpain II (m calpain); [3]): 1100 nM
IC50 (calpain II (m calpain); [2]): 1340 nM
IC50 (cathepsin B): 1100 nM
IC50 (α-chymotrypsin): > 50000 nM
IC50 (papain): > 50000 nM

CC(C)C[C@@H]1NC(=O)[C@@H](NC(=O)OCc2ccccc2)Cc2ccc(cc2)OCCCCC[C@@H](C=O)NC1=O [Compound 28]
IC50 (calpain I (μ calpain)): 170 nM
IC50 (calpain II (m calpain); [3]): 180 nM
IC50 (calpain II (m calpain); [2]): 180 nM
IC50 (cathepsin B): 770 nM
IC50 (α-chymotrypsin): > 50000 nM
IC50 (papain): > 50000 nM

CC(C)[C@@H]1NC(=O)[C@@H](NC(=O)OCc2ccccc2)Cc2ccc(cc2)OCCCCSC[C@@H](C=O)NC1=O [Compound 36]
IC50 (calpain II (m calpain); [2]): 295 nM

CC(C)[C@@H]1NC(=O)[C@@H](NC(=O)OCc2ccccc2)Cc2ccc(cc2)OCCCC[C@@H](C=O)NC1=O [Compound 50]
IC50 (calpain II (m calpain); [2]): 40 nM

CC(C)[C@@H]1NC(=O)[C@@H](NC(=O)c2ccc[nH]2)Cc2ccc(cc2)OCCCC[C@@H](C=O)NC1=O [Compound 52, 1H-Pyrrole-2-carboxylic acid ((7S,10S,13S)-7-formyl-10-isopropyl-9,12-dioxo-2-oxa-8,11-diaza-bicyclo[13.2.2]nonadeca-1(18),15(19),16-trien-13-yl)-amide]
IC50 (calpain II (m calpain); [2]): 690 nM

CC(C)[C@@H]1NC(=O)[C@@H](NS(=O)(=O)c2ccc(F)cc2)Cc2ccc(cc2)OCCCC[C@@H](C=O)NC1=O [Compound 54, 4-Fluoro-N-((7S,10S,135)-7-formyl-10-isopropyl-9,12-dioxo-2-oxa-8,11-diaza-bicyclo[13.2.2]nonadeca-1(18),15(19),16-trien-13-yl)-benzenesulfonamide]
IC50 (calpain II (m calpain); [2]): 280 nM

CC(C)[C@@H]1NC(=O)[C@@H](NS(C)(=O)=O)Cc2ccc(cc2)OCCCC[C@@H](C=O)NC1=O [Compound 56, N-((7S,10S,13S)-7-Formyl-10-isopropyl-9,12-dioxo-2-oxa-8,11-diaza-bicyclo[13.2.2]nonadeca-1(18),15(19),16-trien-13-yl)-methanesulfonamide]
IC50 (calpain II (m calpain); [2]): 950 nM

CC(C)[C@@H]1NC(=O)[C@@H](NS(=O)(=O)c2ccc(F)cc2)Cc2ccc(cc2)OCCCCSC[C@@H](C=O)NC1=O [Compound 58, 4-Fluoro-N-((9R,12S,15S)-9-formyl-12-isopropyl-11,14-dioxo-2-oxa-7-thia-10,13-diaza-bicyclo[15.2.2]henicosa-1(20),17(21),18-trien-15-yl)-benzenesulfonamide]
IC50 (calpain II (m calpain); [2]): 2400 nM

CC(C)[C@@H]1NC(=O)[C@@H](NS(=O)(=O)c2ccc(F)cc2)Cc2ccc(cc2)OCCC[C@@H](C=O)NC1=O [Compound 69, 4-Fluoro-N-((6S,9S,12S)-6-formyl-9-isopropyl-8,11-dioxo-2-oxa-7,10-diaza-bicyclo[12.2.2]octadeca-1(17),14(18),15-trien-12-yl)-benzenesulfonamide]
IC50 (calpain II (m calpain); [2]): 3710 nM

CC(C)C[C@@H]1NC(=O)[C@@H](NC(=O)OCc2ccccc2)Cc2ccc(cc2)OCCCC[C@@H](CN=[N+]=[N-])NC1=O [Compound 79, (7S-azidomethyl-10S-isobutyl-9,12-dixoxo-2-oxa-8,11-diazabicyclo-[13.2.2]nonadeca-1(18),15(19),16-trien-13S-yl)carbamic acid benzyl ester]
IC50 (calpain I (μ calpain)): > 50000 nM
IC50 (calpain II (m calpain); [3]): > 50000 nM
IC50 (calpain II (m calpain); [2]): > 50000 nM
IC50 (cathepsin B): > 50000 nM
IC50 (α-chymotrypsin): > 50000 nM
IC50 (papain): > 50000 nM

CC(C)C[C@@H]1NC(=O)[C@@H](NC(=O)OCc2ccccc2)Cc2ccc(cc2)OCCCC[C@@H](CNC2CC2)NC1=O [Compound 81, ((7S,10S,13S)-7-Cyclopropylaminomethyl-10-isobutyl-9,12-dioxo-2-oxa-8,11-diaza-bicyclo[13.2.2]nonadeca-1(18),15(19),16-trien-13-yl)-carbamic acid benzyl ester]
IC50 (calpain II (m calpain); [2]): > 50000 nM

(E/Z)-12S-tert-Butoxycarbonylamino-9S-isobutyl-8,11-dioxo-2-oxa-7,10-diazabicyclo[12.2.2]octadeca-1(17),4,14(18),15-tetraene-6S-carboxylic acid methyl ester
ring closure, isolated yield ([1]; 16-membered ring, Grubbs II (3 x 0.10 equiv), microwave, 10.0 mM): 48%

(E/Z)-15S-tert-Butoxycarbonylamino-12S-isobutyl-11,14-dioxo-2,7-dioxa-10,13-diaza-bicyclo[15.2.2]heneicosa-1(20),4,17(21),18-tetraene-9R-carboxylic acid methyl ester
ring closure, isolated yield [1, 4]: 33%

(E/Z)-15S-tert-Butoxycarbonylamino-12S-isobutyl-11,14-dioxo-2-oxa-2-thia-10,13-diaza-bicyclo[15.2.2]heneicosa-1(20),4,17(21),18-tetraene-9R-carboxylic acid methyl ester
ring closure, isolated yield [1, 4]: 40%

(E/Z)-(7S,10S,13S)-13-(4-Fluoro-benzenesulfonylamino)-10-isobutyl-9,12-dioxo-2-oxa-8,11-diaza-bicyclo[13.2.2]nonadeca-1(18),4,15(19),16-tetraene-7-carboxylic acid methyl ester
ring closure, isolated yield ([1]; 17-membered ring, Grubbs II/Cy2BCl, 10.3 mM): 63%

(E/Z)-(9R,12S,15S)-15-tert-Butoxycarbonylamino-12-isopropyl-11,14-dioxo-2-oxa-7-thia-10,13-diaza-bicyclo[15.2.2]henicosa-1(20),4,17(21),18-tetraene-9-carboxylic acid methyl ester
ring closure, isolated yield ([1]; 19-membered ring, Grubbs II, 17.3 mM): 72%

(E/Z)-(9S,12S,15S)-15-tert-Butoxycarbonylamino-12-isopropyl-11,14-dioxo-2,7-dioxa-10,13-diaza-bicyclo[15.2.2]henicosa-1(20),4,17(21),18-tetraene-9-carboxylic acid methyl ester
ring closure, isolated yield ([1]; 19-membered ring, Grubbs II, 12.6 mM): 23%
